From patent US10618918B2, “Substituted boronic acids as antimicrobials” (priority 2015, dated 2020) come the findings set out here.

One assay concerns EC1010 CMY-6. The assay is described as follows: Aztreonam potentiation (MPC@4), strain EC1010 CMY-6. The conditions noted are these: minimum BLI concentration inhibiting growth with aztreonam 4 μg/mL; tested up to 40 μg/mL.
In a further assay the test system is AB1054 OXA-23. As to the kind of experiment: Meropenem potentiation (MPC@8), strain AB1054 OXA-23. The assay is classed as cell-based, Acinetobacter baumannii. As to conditions: minimum BLI concentration inhibiting growth with meropenem 8 μg/mL; tested up to 20 μg/mL.
Another assay concerns ECL1002. As to the kind of experiment: Aztreonam potentiation (MPC@4), strain ECL1002. As to conditions: minimum BLI concentration inhibiting growth with aztreonam 4 μg/mL; tested up to 40 μg/mL.
The subject of a further assay is KP1005 CTX-M-14. As to the kind of experiment: Tigemonam potentiation (MPC@4), strain KP1005 CTX-M-14. The conditions noted are these: minimum BLI concentration inhibiting growth with tigemonam 4 μg/mL; tested up to 40 μg/mL.
The subject of the next assay is KP1086 OXA-48. The assay is described as follows: Biapenem potentiation (MPC@1), strain KP1086 OXA-48. It is filed as cell-based. As to conditions: minimum BLI concentration inhibiting growth with biapenem 1 μg/mL; tested up to 40 μg/mL. The protocol:
(§1) Biapenem was present in the test medium at 1 μg/mL. […] Table 3 summarizes the BLI potency of biapenem potentiation (MPC@1) for two strains overexpressing class A (KPC) and class D (OXA-48) carbapenemases. Biapenem MIC for each strain is also shown.

Assay [1] concerns KP1004 KPC-2. The assay is described as follows: Biapenem potentiation (MPC@1), strain KP1004 KPC-2. The assay is classed as cell-based. As to conditions: minimum BLI concentration inhibiting growth with biapenem 1 μg/mL; tested up to 40 μg/mL. The protocol:
as §1

For a further assay, the system named is ec302 TEM-10. As to the kind of experiment: Aztreonam potentiation (MPC@4), strain ec302 TEM-10. The conditions noted are these: minimum BLI concentration inhibiting growth with aztreonam 4 μg/mL; tested up to 40 μg/mL.
A further assay deals with KP1010 SHV-12. As to the kind of experiment: Aztreonam potentiation (MPC@4), strain KP1010 SHV-12. The conditions noted are these: minimum BLI concentration inhibiting growth with aztreonam 4 μg/mL; tested up to 40 μg/mL.
In the next assay the test system is ec308 SHV-5. As to the kind of experiment: Aztreonam potentiation (MPC@4), strain ec308 SHV-5. As to conditions: minimum BLI concentration inhibiting growth with aztreonam 4 μg/mL; tested up to 40 μg/mL.
For another assay, the system named is AB1053 OXA-72. As to the kind of experiment: Meropenem potentiation (MPC@8), strain AB1053 OXA-72. The assay is classed as cell-based, Acinetobacter baumannii. The conditions noted are these: minimum BLI concentration inhibiting growth with meropenem 8 μg/mL; tested up to 20 μg/mL.
Another assay concerns KP1009 CTX-M-15. The assay is described as follows: Aztreonam potentiation (MPC@4), strain KP1009 CTX-M-15. The conditions noted are these: minimum BLI concentration inhibiting growth with aztreonam 4 μg/mL; tested up to 40 μg/mL.
Assay [2] has as its target purified class A, C and D enzymes (β-lactamases) (Klebsiella pneumoniae, UniProt Q9F663). The assay is described as follows: biochemical. As to conditions: purified KPC-2; nitrocefin (NCF) as reporter substrate. The assay is classed as biochemical.
The target in assay [3] is T1, purified class A, C and D enzymes (β-lactamases) (Acinetobacter baumannii, UniProt Q9L4P2).
T1 construct: rows headed: Ki (OXA-23, NCF), uM; other: purified OXA-23; nitrocefin (NCF) as reporter substrate
The assay is described as follows: biochemical. The assay is classed as biochemical. As to conditions: purified OXA-23; nitrocefin (NCF) as reporter substrate.

In assay [4] the target is T2, purified class A, C and D enzymes (β-lactamases) (Pseudomonas aeruginosa, UniProt P24735).
T2 construct: rows headed: Ki (Pa-AmpC, NCF), uM; other: purified Pa-AmpC; nitrocefin (NCF) as reporter substrate
The assay is described as follows: biochemical. It is filed as biochemical.

The target in assay [5] is purified class A, C and D enzymes (β-lactamases) (Escherichia coli, UniProt Q9L5C7). The assay is described as follows: biochemical. It is filed as biochemical. The conditions noted are these: purified CTX-M-14; nitrocefin (NCF) as reporter substrate.
Assay [6] concerns the target purified class A, C and D enzymes (β-lactamases) (Enterobacter cloacae, UniProt P05364). The assay is described as follows: biochemical. It is filed as biochemical.
Assay [7] concerns the target purified class A, C and D enzymes (β-lactamases) (Klebsiella pneumoniae, UniProt Q6XEC0). The assay is described as follows: biochemical. The conditions noted are these: purified OXA-48; nitrocefin (NCF) as reporter substrate. It is filed as biochemical.
Assay [8] deals with KP1004 KPC-2. As to the kind of experiment: Aztreonam potentiation (MPC@4), strain KP1004 KPC-2. The conditions noted are these: minimum BLI concentration inhibiting growth with aztreonam 4 μg/mL; tested up to 40 μg/mL.

Like-named read-outs stand apart in the source and are kept apart here. Bounds are passed on as bounds.

The Ki is the equilibrium dissociation constant of an inhibitor or competing ligand from its target.

T1 sequence (Q9L4P2 whole entry): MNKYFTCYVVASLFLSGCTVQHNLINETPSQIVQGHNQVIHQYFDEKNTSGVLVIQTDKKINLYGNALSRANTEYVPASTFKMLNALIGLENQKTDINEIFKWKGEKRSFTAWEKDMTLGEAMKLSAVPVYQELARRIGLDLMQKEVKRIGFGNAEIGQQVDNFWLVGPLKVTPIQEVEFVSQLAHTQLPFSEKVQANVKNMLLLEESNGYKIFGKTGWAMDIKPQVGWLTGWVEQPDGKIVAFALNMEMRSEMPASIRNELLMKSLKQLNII
Chain of purified class A, C and D enzymes (β-lactamases) (Escherichia coli, UniProt Q9L5C7) (Q9L5C7 entry or part of it): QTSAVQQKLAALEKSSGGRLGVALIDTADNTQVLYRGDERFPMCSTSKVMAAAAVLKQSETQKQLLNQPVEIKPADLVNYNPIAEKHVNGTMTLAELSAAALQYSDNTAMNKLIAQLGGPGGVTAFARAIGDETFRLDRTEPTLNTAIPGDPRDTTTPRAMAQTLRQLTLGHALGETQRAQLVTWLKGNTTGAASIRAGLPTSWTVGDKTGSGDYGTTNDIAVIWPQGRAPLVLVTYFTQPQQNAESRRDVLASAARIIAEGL
Chain of purified class A, C and D enzymes (β-lactamases) (Enterobacter cloacae, UniProt P05364) (P05364 21-381): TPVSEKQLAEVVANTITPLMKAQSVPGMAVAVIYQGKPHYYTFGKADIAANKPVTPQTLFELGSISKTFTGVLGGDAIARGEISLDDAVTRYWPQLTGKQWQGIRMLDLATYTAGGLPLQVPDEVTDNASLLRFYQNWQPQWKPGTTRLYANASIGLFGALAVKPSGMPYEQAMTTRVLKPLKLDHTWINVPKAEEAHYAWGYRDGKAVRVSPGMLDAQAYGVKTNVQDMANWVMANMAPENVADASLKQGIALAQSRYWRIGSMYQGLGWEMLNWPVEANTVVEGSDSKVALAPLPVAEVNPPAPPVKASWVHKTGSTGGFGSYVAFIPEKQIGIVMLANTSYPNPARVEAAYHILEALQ
T2 sequence (P24735 whole entry): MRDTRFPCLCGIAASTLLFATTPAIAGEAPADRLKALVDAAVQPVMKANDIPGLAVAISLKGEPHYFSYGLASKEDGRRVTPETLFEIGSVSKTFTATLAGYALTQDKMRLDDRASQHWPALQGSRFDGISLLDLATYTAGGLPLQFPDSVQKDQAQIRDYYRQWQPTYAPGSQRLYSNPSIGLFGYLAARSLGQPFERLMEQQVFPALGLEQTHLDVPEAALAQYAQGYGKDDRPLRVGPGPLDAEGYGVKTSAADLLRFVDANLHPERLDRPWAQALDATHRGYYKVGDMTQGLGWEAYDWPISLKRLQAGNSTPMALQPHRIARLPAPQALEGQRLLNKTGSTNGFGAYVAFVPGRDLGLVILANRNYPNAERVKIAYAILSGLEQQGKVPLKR

Consider `O=C([O-])c1c(O)ccc2c1O[B-](O)(O)CC2.[Na+].[Na+]` [Compound 42, Disodium; 4,4,8-trihydroxy-5-oxa-4-boranuidabicyclo[4.4.0]deca-1(6),7,9-triene-7-carboxylate], for which the “AZT MPC4 CMY-6 EC1010” value in the assay on EC1010 CMY-6 is “Z (Z = MPC@4 > 20 μg/mL)”. Also, the “MPM MPC8 AB1054 OXA-23” value in the assay on AB1054 OXA-23 is given as “Z (Z = MPC@1 > 20 μg/mL)”. For the same compound, the “AZT MPC4 ECL1002” value with ECL1002 was “Z (Z = MPC@4 > 20 μg/mL)”. For the same compound, in the assay with KP1005 CTX-M-14, the “TIG MPC4 CTX-M-14 KP1005” value was “Z (Z = MPC@4 > 20 μg/mL)”. Moreover, in the assay on KP1086 OXA-48, the “BPM MPC1 OXA-48 KP1086” value is listed as “X (X = MPC@1 ≤ 5 μg/mL)”. Besides, in the assay with KP1004 KPC-2 [1], the “BPM MPC1 KP1004 KPC-2” value was “X (X = MPC@1 ≤ 5 μg/mL)”. The “AZT MPC4 TEM-10 ec302” value with ec302 TEM-10 is reported as “Y (Y = 5 μg/mL < MPC@4 ≤ 20 μg/mL)”. Moreover, the “AZT MPC4 SHV-12 KP1010” value with KP1010 SHV-12 is reported as “X (X = MPC@4 ≤ 5 μg/mL)”. For the same compound, in the assay on ec308 SHV-5, the “AZT MPC4 SHV-5 ec308” value is recorded as “Y (Y = 5 μg/mL < MPC@4 ≤ 20 μg/mL)”. The “MPM MPC8 AB1053 OXA-72” value in the assay on AB1053 OXA-72 was “Z (Z = MPC@1 > 20 μg/mL)”. Further, the “AZT MPC4 CTX-M-15 KP1009” value in the assay on KP1009 CTX-M-15 is reported as “Z (Z = MPC@4 > 20 μg/mL)”. Besides, the “Ki (KPC-2, NCF), uM” value in [2] was “X (X = Ki ≤ 0.1 μM)”. Further, the Ki in assay [3] and in assay [4] was 100 to 1000 nM in each case. Besides, in [5], the “Ki (CTX-M-14, NCF), uM” value was “X (X = Ki ≤ 0.1 μM)”. Also, the “Ki (P99, NCF), uM” value in assay [6] was “Y (key: X = Ki ≤ 0.1 μM; Y = 0.1 μM < Ki ≤ 1 μM; Z = Ki > 1 μM)”. Moreover, the “Ki (OXA-48, NCF), uM” value in [7] is listed as “X (X = Ki ≤ 0.1 μM)”. Besides, the “AZT MPC4 KPC-2 KP1004” value in the assay with KP1004 KPC-2 [8] is “Y (Y = 5 μg/mL < MPC@4 ≤ 20 μg/mL)”.

Turning to `COc1c(Cl)cc2c(c1C(=O)O)OB(O)CC2` [Compound 41, 6-Chloro-2-hydroxy-7-methoxy-3,4-dihydro-1,2-benzoxaborinine-8-carboxylic acid], the “AZT MPC4 CMY-6 EC1010” value in the assay on EC1010 CMY-6 is “X (X = MPC@4 ≤ 5 μg/mL)”. In addition, the “MPM MPC8 AB1054 OXA-23” value in the assay with AB1054 OXA-23 is listed as “X (X = MPC@1 ≤ 5 μg/mL)”. The “AZT MPC4 ECL1002” value in the assay with ECL1002 was “X (X = MPC@4 ≤ 5 μg/mL)”. Moreover, the “TIG MPC4 CTX-M-14 KP1005” value in the assay on KP1005 CTX-M-14 was “Y (Y = 5 μg/mL < MPC@4 ≤ 20 μg/mL)”. Besides, in the assay on KP1086 OXA-48, the “BPM MPC1 OXA-48 KP1086” value is given as “X (X = MPC@1 ≤ 5 μg/mL)”. Besides, the “BPM MPC1 KP1004 KPC-2” value with KP1004 KPC-2 [1] is recorded as “X (X = MPC@1 ≤ 5 μg/mL)”. Moreover, in the assay on ec302 TEM-10, the “AZT MPC4 TEM-10 ec302” value is “X (X = MPC@4 ≤ 5 μg/mL)”. Besides, the “AZT MPC4 SHV-12 KP1010” value with KP1010 SHV-12 was “X (X = MPC@4 ≤ 5 μg/mL)”. The “AZT MPC4 SHV-5 ec308” value in the assay with ec308 SHV-5 is given as “X (X = MPC@4 ≤ 5 μg/mL)”. The “MPM MPC8 AB1053 OXA-72” value with AB1053 OXA-72 is recorded as “X (X = MPC@1 ≤ 5 μg/mL)”. Moreover, in the assay with KP1009 CTX-M-15, the “AZT MPC4 CTX-M-15 KP1009” value is “X (X = MPC@4 ≤ 5 μg/mL)”. Also, the “Ki (KPC-2, NCF), uM” value in assay [2] is reported as “X (X = Ki ≤ 0.1 μM)”. Besides, the Ki in [3] was under 100 nM; in assay [4] (purified Pa-AmpC, nitrocefin (NCF) as reporter substrate, read-out: Ki (Pa-AmpC, NCF)), under 100 nM. Moreover, in assay [5], the “Ki (CTX-M-14, NCF), uM” value is “X (X = Ki ≤ 0.1 μM)”. In addition, in assay [6] (purified P99, nitrocefin (NCF) as reporter substrate), the “Ki (P99, NCF), uM” value is recorded as “X (X = Ki ≤ 0.1 μM)”. Besides, in assay [7], the “Ki (OXA-48, NCF), uM” value was “X (X = Ki ≤ 0.1 μM)”. The “AZT MPC4 KPC-2 KP1004” value in the assay with KP1004 KPC-2 [8] is listed as “X (X = MPC@4 ≤ 5 μg/mL)”.

Take `CCOc1ccc2c(c1C(=O)[O-])O[B-](O)(O)CC2.[Na+].[Na+]` [Compound 57, Disodium; 8-ethoxy-4,4-dihydroxy-5-oxa-4-boranuidabicyclo[4.4.0]deca-1(6),7,9-triene-7-carboxylate]: the “AZT MPC4 CMY-6 EC1010” value in the assay on EC1010 CMY-6 was “X (X = MPC@4 ≤ 5 μg/mL)”. For the same compound, the “MPM MPC8 AB1054 OXA-23” value with AB1054 OXA-23 was “X (X = MPC@1 ≤ 5 μg/mL)”. In the assay on ECL1002, the “AZT MPC4 ECL1002” value is “X (X = MPC@4 ≤ 5 μg/mL)”. Also, the “TIG MPC4 CTX-M-14 KP1005” value in the assay on KP1005 CTX-M-14 is recorded as “Y (Y = 5 μg/mL < MPC@4 ≤ 20 μg/mL)”. Further, the “BPM MPC1 OXA-48 KP1086” value with KP1086 OXA-48 was “X (X = MPC@1 ≤ 5 μg/mL)”. Besides, the “BPM MPC1 KP1004 KPC-2” value with KP1004 KPC-2 [1] is “X (X = MPC@1 ≤ 5 μg/mL)”. The “AZT MPC4 TEM-10 ec302” value with ec302 TEM-10 was “X (X = MPC@4 ≤ 5 μg/mL)”. The “AZT MPC4 SHV-12 KP1010” value in the assay with KP1010 SHV-12 was “X (X = MPC@4 ≤ 5 μg/mL)”. Further, the “AZT MPC4 SHV-5 ec308” value in the assay with ec308 SHV-5 is reported as “X (X = MPC@4 ≤ 5 μg/mL)”. Moreover, the “MPM MPC8 AB1053 OXA-72” value in the assay on AB1053 OXA-72 was “X (X = MPC@1 ≤ 5 μg/mL)”. Further, the “AZT MPC4 CTX-M-15 KP1009” value with KP1009 CTX-M-15 is given as “X (X = MPC@4 ≤ 5 μg/mL)”. The “Ki (KPC-2, NCF), uM” value in assay [2] is recorded as “X (X = Ki ≤ 0.1 μM)”. In addition, the Ki in assay [3] and in assay [4] was under 100 nM throughout. In assay [5], the “Ki (CTX-M-14, NCF), uM” value is on record as “X (X = Ki ≤ 0.1 μM)”. Further, in assay [6], the “Ki (P99, NCF), uM” value is recorded as “X (key: X = Ki ≤ 0.1 μM; Y = 0.1 μM < Ki ≤ 1 μM; Z = Ki > 1 μM)”. In assay [7], the “Ki (OXA-48, NCF), uM” value is listed as “X (X = Ki ≤ 0.1 μM)”. Besides, the “AZT MPC4 KPC-2 KP1004” value with KP1004 KPC-2 [8] is on record as “X (X = MPC@4 ≤ 5 μg/mL)”.
